System: HA-TDP expressing cells
Test: Suppression of insoluble TDP aggregate formation by candidate compounds (Western blot with anti-409/410 antibody, densitometer)
Assay type: cell-based, human
Conditions: 20 μM, ppt fraction after three days, compared with DMSO control as 100%; for suppressing effect against aggregate formation: added 6 hours after introduction of insoluble fraction from the brain of patient
Experimental: Two transfectants of (1) SH-SY5Y cells expressing human α-synuclein (hereinafter referred to as “αS expressing cells” for transfectants and “αS” for the human α-synuclein, respectively) and (2) SH-SY5Y cells expressing HA-tagged TAR DNA binding protein (hereinafter referred to as “HA-TDP expressing cells” for the SH-SY5Y cells and an “HA-TDP” HA-tagged TAR DNA binding protein, respectively) were prepared. In brief, a construct in which a polynucleotide encoding αS or HA-TDP was inserted into pcDNA3 vector were prepared (Ueda. K et al., Proc. Natl. Acad. Sci. U.S.A. 90: 11282 (1993), Ou. S H et al., J Virol. 3584: 394 (1995)). Mixture of the construct (1 μg), X-tremeGENE 9 DNA transfection reagent (Roche Diagnostics K.K.) (3 μL) and the OptiMEM (100 μL) was added to 30% to 50% confluent of the SH-SY5Y cells and incubated over night, then used in the following step of introduction of insoluble fraction.
An amount of sample for introduction per one well of the 6-well plate was added to the cell culture medium of one well, then the cultured cells was incubated for 6 hours. After the incubation, the medium was replaced with a flesh cell culture medium (2 mL) and the cultured cells were incubated for 3 days. Then, the cultured cells were used to perform the analysis by Western blotting and immunocytochemistry. If the cultured cells were not used immediately, the cultured cells were stored at −20° C.
The precipitate obtained in the preparation of TX fraction was suspended in a cell lysis buffer containing 1% N-sodium lauroyl sarcosinate, and incubated at 37° C. for 30 min. After ultrasonication treatment using VP-5S type device (Titech Corporation), the supernatant and precipitate were separated by ultracentrifugation (290,000×g, 20 min, 4° C.), the supernatant was used as Tris buffer soluble fraction containing N-sodium lauroyl sarcosinate (hereinafter referred to as “Sar fraction”). And also, the precipitate was used as insoluble fraction (hereinafter referred to as “ppt fraction”).
TS, TX, Sar and ppt fractions were used in the Western blotting by standard method well known to those skilled in the art. In brief, each fraction was separated by electrophoresis with 13.5% SDS-polyacrylamide gel, respectively. The separated proteins were transferred to a PVDF membrane, reacted with the following primary and secondary antibodies, and detected with an ECL Plus Western Blotting Detection System (GE Healthcare Japan Corporation) and an ImageQuant™ LAS 4000 mini (GE Healthcare Japan Corporation).
The harvest of samples, preparation of insoluble fractions from the brain samples, preparation of sample for introduction including the insoluble fractions, cell culturing, preparation of transfectants, introduction of insoluble fractions into the cultured cells and Western blotting were performed in accordance with the procedures similar to those in the example 3. In this example, the candidate compounds of therapeutic agent of neurodegenerative disease were added at final concentration of 20 μM at 6 hours after introduction of insoluble fraction originated from the brain of patient into HA-TDP expressing cells. […] In three days after the introduction of insoluble fraction from the brain of patient, the ppt fraction of HA-TDP expressing cells was recovered and used in Western blotting, and the amounts of the insoluble fractions were quantified with a densitometer. […]

| SMILES | suppressing effect against aggregate formation | aggregate formation suppressed |
| --- | --- | --- |
| O=c1c(O)c(-c2cc(O)c(O)c(O)c2)oc2cc(O)cc(O)c12 [myricetin] | had the suppressing effect | – |
| O=c1c(O)c(-c2ccc(O)c(O)c2)oc2c(O)c(O)cc(O)c12 [gossypetin] | had the suppressing effect | approximately 40% |
| O=C(c1cc(O)c(O)c(O)c1)c1ccc(O)c(O)c1O [exifone] | did not have a suppressing effect | – |
| O=C(O[C@@H]1Cc2c(O)cc(O)cc2O[C@@H]1c1ccc(O)c(O)c1)c1cc(O)c(O)c(O)c1 [epicatechin gallate, (−)-epicatechin gallate] | had the suppressing effect | – |

From US9624279B2, “Method for producing insoluble aggregate of neurodegenerative-disease-related protein” (TOKYO METROPOLITAN INSTITUTE OF MEDICAL SCIENCE, priority 2011, dated 2017)
